In ChEMBL document CHEMBL4196165, “Catenulobactins A and B, Heterocyclic Peptides from Culturing Catenuloplanes sp. with a Mycolic Acid-Containing Bacterium” (J Nat Prod, 2018):
The source made the active and inactive calls. The calls are words filed in the database; no cut-off is given here.

Legend:
[1] = Metal chelating activity assessed as compound-Fe3+ complex formation after 1 hr by LC/MS analysis
[2] = test system: P388; assay: Cytotoxicity against mouse P388 cells up to 100 uM after 4 days by MTT assay; type: functional, cell-based
[3] = test system: P388; assay: Cytotoxicity against mouse P388 cells after 4 days by MTT assay; type: functional, cell-based; details: P388, 96 h
[4] = Stability of the compound in physiological conditions at pH > 7; type: physicochemical

| SMILES | Activity [1] | Activity [2] | IC50 [3] [µM] | Stability [4] |
| --- | --- | --- | --- | --- |
| C[C@@H]1ON(CCC[C@@H](NC(=O)[C@H]2N=C(c3ccccc3O)O[C@@H]2C)C(=O)O)C(=O)[C@H]1NC(=O)c1ccccc1O | inactive | inactive | – | – |
| C[C@H]1OC(c2ccccc2O)=N[C@@H]1C(=O)N[C@H](CCCN(O)C(=O)[C@H]1N=C(c2ccccc2O)O[C@@H]1C)C(=O)O | Active | – | 22.4 | Unstable |
